The values that follow come from PubChem BioAssay (NCI).

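Exposure lasted 48 hours, with cells grown in 96-well plates and compounds tested at five concentrations. GI50 is the concentration that inhibits growth by half. At the TGI there is no net growth.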

Holding throughout (assay): growth of human tumour cells (NCI), 48 h
Assay [1] concerns UACC-62 melanoma.
The test system of assay [2] is HOP-92 NSCLC.
In assay [3] the test system is KM12 colon.
Assay [4] deals with UACC-257 melanoma.
For assay [5], the system named is A549 NSCLC.
Assay [6] relates to M14 melanoma.
Assay [7] concerns SK-MEL-28 melanoma.
Assay [8] relates to MALME-3M melanoma.
Assay [9] deals with PC-3 prostate.
Assay [10] deals with NCI-H522 lung.

Consider `COc1ccc(F)cc1-c1ccnc2[nH]c(C3=CCN(C4CCC(CC(=O)O)CC4)CC3)cc12` (configuration not stated), for which the GI50 was 0.113 µM in assay [1]; 0.0568 µM in assay [2]; 0.0953 µM in assay [3]; 0.307 µM in [4]; 0.424 µM in assay [5]; 0.275 µM in assay [6]. Moreover, the GI50 is 0.152 µM in assay [7], 0.206 µM in [8], 0.313 µM in [9] and 0.159 µM in assay [10]. For the same compound, the TGI is 0.371 µM in [1]; 0.666 µM in [2]; over 100 µM in [3]; over 100 µM in assay [4]; over 100 µM in assay [5]; 1.93 µM in assay [6]. In addition, the TGI in [7] is 0.989 µM; in assay [8], 0.563 µM; in [9], over 100 µM; in [10] it was 0.714 µM.

On to `N=C1C=C(N)C(=O)c2ccccc21`, for which the GI50 was 0.181 µM in assay [1]; 0.207 µM in assay [2]; 0.322 µM in [3]; 0.161 µM in assay [4]; 1.04 µM in assay [5]; 0.209 µM in [6]. In addition, the GI50 is 0.496 µM in assay [7], 0.173 µM in assay [8], 0.281 µM in assay [9] and 0.17 µM in assay [10]. The TGI was determined as 0.352 µM in [1]; 0.496 µM in assay [2]; 1.26 µM in assay [3]; 0.306 µM in assay [4]; 2.7 µM in assay [5]; 0.422 µM in assay [6]. For the same compound, the TGI in assay [7] stood at 1.64 µM; in assay [8] it was 0.321 µM; in assay [9] it was 1.34 µM; in assay [10] it was 0.342 µM.

For `CCOC(=O)N(O)c1ccc(/C=C/c2ccccc2)cc1`, the GI50 is 0.47 µM in assay [1]; 4.96 µM in assay [2]; 10.6 µM in assay [3]; 0.421 µM in [4]; 2.98 µM in assay [5]; 7.17 µM in [6]. For the same compound, the GI50 in [7] is 17.6 µM; in [8] it was 19.5 µM; in assay [9], 8.23 µM; in assay [10], 7 µM. Moreover, the TGI in assay [1] was found to be 3.07 µM; in assay [2] it was 35.7 µM; in [3], 36.6 µM; in assay [4], 2.49 µM; in assay [5] it was 41.9 µM; in assay [6] it was 26.8 µM. Also, the TGI was 59.8 µM in assay [7], 61.4 µM in assay [8], over 100 µM in [9] and 28 µM in assay [10].

Take `C=C1C(=O)OC2(C)CCC1CC1OC1(C)CCC=C(C)CCC2O` (configuration not stated): the TGI in [1], in assay [2], in assay [3], in [4], in [5] and in [6] was over 100 µM in each case. For the same compound, the TGI in assay [7], in assay [8], in assay [9] and in [10] was over 100 µM each time.

Take `CCN(CC)CCNc1ccc([N+](=O)[O-])c2nc3ccc(OC)cc3c(N)c12`: the TGI turned out to be 3.61 µM in assay [1]; 3.19 µM in [2]; 2.57 µM in [3]; 3.97 µM in [4]; 2.79 µM in assay [5]; 2.97 µM in [6]. Besides, the TGI was determined as 3.37 µM in [7], 3.61 µM in [8], 2.78 µM in assay [9] and 0.551 µM in assay [10].

Turning to `N#Cc1cc2c(cc1Cl)SC(=Nc1ccccc1)N(S(=O)(=O)c1ccc(Br)s1)S2(=O)=O`, the GI50 in assay [1] was 20.8 µM; in [2], 17.6 µM; in assay [3], 18.7 µM; in assay [5], 24.7 µM; in assay [6], 14.8 µM; in assay [7], 19.5 µM. In addition, the GI50 in assay [9] is 17.8 µM; in assay [10], 15.5 µM. Moreover, the TGI in [1] turned out to be 36.3 µM; in assay [2] it was 39.7 µM; in assay [3], 35.7 µM; in [5], 66.6 µM; in assay [6] it was 30.6 µM; in assay [7], 44.1 µM. For the same compound, the TGI in [9] was 37.3 µM; in [10], 39.1 µM.

Turning to `Nc1ccn(C2CC3OCC3O2)c(=O)n1` (configuration not stated), the TGI in assay [1], in assay [3], in assay [4], in assay [5], in assay [6] and in [7] was over 100 µM in each case. Also, the TGI in assay [9] and in assay [10] was over 100 µM each time.

Take `C[C@@H](C[C@H](CCO)c1ccccc1)c1ccc2ccccc2c1`: the GI50 in assay [1] is 1.42 µM; in assay [2], 1.39 µM; in assay [3] it was 1.4 µM; in [5], 1.71 µM; in assay [6], 1.46 µM; in [7], 1.64 µM. In addition, the GI50 in assay [8] was 1.49 µM; in assay [9] it was 1.39 µM; in [10], 1.33 µM. Besides, the TGI in assay [1] came to 2.86 µM; in assay [2], 2.77 µM; in assay [3] it was 2.83 µM; in [5], 3.14 µM; in assay [6], 2.84 µM; in assay [7], 3.06 µM. The TGI in assay [8] came out at 2.89 µM; in assay [9] it was 2.72 µM; in assay [10], 2.78 µM.

In the case of `N/C(CC(=O)NOC(=O)c1ccccc1)=N/OC(=O)c1ccccc1`, the TGI in assay [1], in assay [2], in [3], in [4], in [5] and in assay [6] was over 100 µM each time. The results for the TGI in assay [7], in assay [8] and in [9] were 99.4 µM, over 100 µM and over 100 µM, respectively.

As for `COc1ccc2c(c1)C=CC1C2CC[C@]2(C)C(NC(=O)/C=C/c3ccc(O)c(O)c3)CCC12` (some centres not stated), the GI50 in assay [1] is 14.9 µM; in [2] it was 10.6 µM; in assay [4], 20.8 µM; in assay [5], 11.4 µM; in [6], 13.7 µM; in assay [7], 16.2 µM. Further, the GI50 was 4.64 µM in assay [9] and 3.41 µM in assay [10]. Further, the TGI worked out at 30.8 µM in [1]; 26.5 µM in [2]; 42.7 µM in [4]; 29.5 µM in assay [5]; 30.8 µM in assay [6]; 32 µM in assay [7]. Besides, the TGI is 18 µM in assay [9] and 10.9 µM in [10].
